Assay results reported in article PMC6274827 (2018).

Legend:
[1] = system: F21D (DNA, G4) GGGTTAGGGTTAGGGTTAGGG; experiment: FRET melting; conditions: 5 mM K+, 95 mM Li+, 10 mM lithium cacodylate, pH 7.2, 0.2 µM F21D
[2] = system: Tel22 (DNA, G4) AGGGTTAGGGTTAGGGTTAGGG; experiment: UV-Vis titration, Direct Fit; conditions: 5 mM K+, 95 mM Li+; 10 mM lithium cacodylate, pH 7.2; equivalent independent sites assumed; per site

ΔTm ([1]; 20 eq. compound, weak stabilization up to 8 eq.) [°C]	Ka [2]	ΔTm ([1]; 7.5 eq. compound) [°C]	SMILES
33 ± 2	(1.4 ± 0.7) × 10^7 M^-1		NCCCNCCCCNCCCNC(=O)c1ccc(-c2c3nc(c(-c4ccc(C(=O)NCCCNCCCCNCCCN)cc4)c4ccc([n-]4)c(-c4ccc(C(=O)NCCCNCCCCNCCCN)cc4)c4nc(c(-c5ccc(C(=O)NCCCNCCCCNCCCN)cc5)c5ccc2[n-]5)C=C4)C=C3)cc1.O.[Zn+2]
	(4.7 ± 0.7) × 10^6 M^-1	36 ± 2	NCCCNCCCCNCCCNC(=O)c1ccc(-c2c3nc(c(-c4ccc(C(=O)NCCCNCCCCNCCCN)cc4)c4ccc([nH]4)c(-c4ccc(C(=O)NCCCNCCCCNCCCN)cc4)c4nc(c(-c5ccc(C(=O)NCCCNCCCCNCCCN)cc5)c5ccc2[nH]5)C=C4)C=C3)cc1
